± gives the standard deviation of the averaged measurements.
Tests used:
Details in all cases: 72 h
K-562 = experiment: cell viability (% survival relative to DMSO control, bortezomib = 0%); higher = less cytotoxic
Method in brief: (§1)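 Reported values are percent survival from duplicate wells, averaged. Fifteen myeloid leukaemia cell lines were treated in 384-well plates with compounds at 1, 10, 100, 1000 or 10000 nM for 72 h at 37 °C in 5% CO2. Signals from CellTiter-Glo luminescence were scaled with vehicle as 100% and a 10 µM positive control as 0%.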

Mono-Mac-6 = experiment: as above
Method in brief: as §1

KU-812 = experiment: as above
Method in brief: as §1

BV-173 = experiment: as above
Method in brief: as §1

KCL-22 = experiment: as above
Method in brief: as §1

MV4-11 = experiment: as above
Method in brief: as §1

ML-2 = experiment: as above
Method in brief: as §1

KG-1 = experiment: as above
Method in brief: as §1

THP-1 = experiment: as above
Method in brief: as §1

LAMA-84 = experiment: as above
Method in brief: as §1

HL-60 [1] = experiment: as above
Method in brief: as §1

MOLM-13 = experiment: as above
Method in brief: as §1

NOMO-1 [2] = experiment: as above
Method in brief: as §1

HEL = experiment: as above
Method in brief: as §1

SHI-1 = experiment: as above
Method in brief: as §1

HL-60 [3] = experiment: area under dose-response curve (viability, 1 nM-10 uM) (fraction (0-1)); higher = more sensitive
Method in brief: (§2)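 Area under the curve, where listed, was derived from four-parameter log-logistic fits with drc and PharmacoGx. These fits used CellTiter-Glo viability from HL-60 cells in RPMI 1640 with 10% FBS, normalised to DMSO wells and wells holding 10 μM proteasome inhibitor. The full library was rescreened on 384-well plates in duplicate at five tenfold concentrations, 1–10,000 nM, with DMSO or 100 nM of one of three metabolic inhibitors, for 72 h at 37 °C, 5% CO2.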

NOMO-1 [4] = test system: NOMO-1
Method in brief: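 Each of fifteen myeloid leukaemia cell lines was seeded in RPMI 1640 at a density titrated to its linear growth range. The cells were incubated for 72 h at 37 °C and 5% CO2 with compounds at five tenfold doses from 1 to 10,000 nM, in duplicate. After ATP luminescence was normalised to vehicle and to a positive control at 10 µM, four-parameter log-logistic curves were fitted. These curves gave the IC50.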

HL-60 [5] = experiment: cell viability (% survival relative to DMSO control); higher = less cytotoxic
Method in brief: as §2

CC(C)(F)C[C@H](N[C@@H](c1ccc(-c2ccc(S(C)(=O)=O)cc2)cc1)C(F)(F)F)C(=O)NC1(C#N)CC1 [Odanacatib]
Details | area under dose-response curve, co-treatment: AZD3965 100 nM | area under dose-response curve, co-treatment: DMSO vehicle | area under dose-response curve, co-treatment: GSK2194069 100 nM | area under dose-response curve, co-treatment: pictilisib 100 nM | cell viability, 1 nM [%] | cell viability, 10 nM [%] | cell viability, 100 nM [%] | cell viability, 1000 nM [%] | cell viability, 10000 nM [%]
BV-173 | – | – | – | – | 85.1 | 104 | 101 | 88.7 | 106
HEL | – | – | – | – | 104 | 107 | 99.9 | 92.7 | 107
HL-60 [1] | – | – | – | – | 143 | 105 | 114 | 118 | 83.3
HL-60 [3] | < 0.0301 | < 0.0301 | < 0.0301 | < 0.0301 | – | – | – | – | –
K-562 | – | – | – | – | 101 | 106 | 104 | 91.8 | 103
KCL-22 | – | – | – | – | 128 | 96.9 | 104 | 93.7 | 122
KG-1 | – | – | – | – | 103 | 99.6 | 95.6 | 107 | 103
KU-812 | – | – | – | – | 94.8 | 87.9 | 99.7 | 91.8 | 99.2
LAMA-84 | – | – | – | – | 104 | 103 | 106 | 89 | 102
ML-2 | – | – | – | – | 107 | 101 | 96.5 | 100 | 101
MOLM-13 | – | – | – | – | 128 | 99.5 | 108 | 96.4 | 117
MV4-11 | – | – | – | – | 109 | 105 | 111 | 97.9 | 112
Mono-Mac-6 | – | – | – | – | 96.4 | 101 | 101 | 99.2 | 85.5
NOMO-1 [2] | – | – | – | – | 99.6 | 100 | 108 | 102 | 100
SHI-1 | – | – | – | – | 109 | 107 | 99.9 | 98.5 | 117
THP-1 | – | – | – | – | 99.2 | 99.6 | 100 | 94.9 | 95.7

Details | IC50 (cell viability) [µM]
NOMO-1 [4] | > 10

cell viability [%], HL-60 [5]
Details | 0.001 µM | 0.01 µM | 0.1 µM | 1 µM | 10 µM
co-treatment: AZD3965 100 nM | 99.32 ± 0.47 | 95.1 ± 11 | 102 ± 1.2 | 96.26 ± 0.29 | 101 ± 3.8
co-treatment: DMSO vehicle | 95.8 ± 6.7 | 98.4 ± 1.8 | 100 ± 1.1 | 95 ± 8.3 | 97.6 ± 0.99
co-treatment: GSK2194069 100 nM | 80.8 ± 23 | 89.4 ± 3.8 | 97.1 ± 2.8 | 90 ± 7.7 | 89.3 ± 6
co-treatment: pictilisib 100 nM | 66.7 ± 44 | 112 ± 12 | 94.9 ± 22 | 96.43 ± 0.2 | 90 ± 15

CN1CC(=O)N2[C@H](c3ccc4c(c3)OCO4)c3[nH]c4ccccc4c3C[C@@H]2C1=O [Tadalafil]
Details | area under dose-response curve, co-treatment: AZD3965 100 nM | area under dose-response curve, co-treatment: DMSO vehicle | area under dose-response curve, co-treatment: GSK2194069 100 nM | area under dose-response curve, co-treatment: pictilisib 100 nM | cell viability, 1 nM [%] | cell viability, 10 nM [%] | cell viability, 100 nM [%] | cell viability, 1000 nM [%] | cell viability, 10000 nM [%]
BV-173 | – | – | – | – | 95.5 | 87 | 89.6 | 96.8 | 88.3
HEL | – | – | – | – | 103 | 77.5 | 93.1 | 98 | 94.7
HL-60 [1] | – | – | – | – | 106 | 75.2 | 107 | 72.9 | 117
HL-60 [3] | < 0.0301 | < 0.0301 | < 0.0301 | < 0.0301 | – | – | – | – | –
K-562 | – | – | – | – | 108 | 105 | 90.6 | 96.4 | 91
KCL-22 | – | – | – | – | 103 | 89.2 | 92 | 101 | 81.7
KG-1 | – | – | – | – | 107 | 98.4 | 99.8 | 103 | 99.4
KU-812 | – | – | – | – | 98.8 | 87.8 | 99.2 | 106 | 96
LAMA-84 | – | – | – | – | 101 | 97.9 | 96.8 | 102 | 103
ML-2 | – | – | – | – | 95.6 | 94.1 | 92 | 101 | 94.9
MOLM-13 | – | – | – | – | 106 | 85.3 | 98.4 | 97.9 | 73.3
MV4-11 | – | – | – | – | 100 | 86.7 | 95.3 | 102 | 92.6
Mono-Mac-6 | – | – | – | – | 99.8 | 93 | 94.8 | 95.4 | 99
NOMO-1 [2] | – | – | – | – | 97.8 | 95.1 | 96.6 | 105 | 108
SHI-1 | – | – | – | – | 109 | 102 | 98.9 | 97.8 | 88.3
THP-1 | – | – | – | – | 96.7 | 97.9 | 94.9 | 98.4 | 96.6

Details | IC50 (cell viability) [µM]
NOMO-1 [4] | > 10

cell viability [%], HL-60 [5]
Details | 0.001 µM | 0.01 µM | 0.1 µM | 1 µM | 10 µM
co-treatment: AZD3965 100 nM | 104 ± 3.4 | 105.1 ± 0.41 | 97.6 ± 2.9 | 104 ± 1.3 | 109 ± 1.1
co-treatment: DMSO vehicle | 100.5 ± 0.71 | 103 ± 3.7 | 98 ± 8.3 | 100 ± 1.4 | 112 ± 6.6
co-treatment: GSK2194069 100 nM | 101.9 ± 0.6 | 106 ± 1.3 | 102 ± 1.4 | 105 ± 1.2 | 95.2 ± 2.1
co-treatment: pictilisib 100 nM | 99.6 ± 3 | 94.8 ± 7.5 | 96.9 ± 3.5 | 93.4 ± 7.5 | 89.9 ± 8.3
